From ChEMBL document CHEMBL1201862, “PubChem BioAssay data set” (2004)
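Interpolation was linear, between the two tested concentrations surrounding the appropriate level; five concentrations were tested over 48 hours in 96-well plates. At the GI50, growth is halved.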 Active and inactive are the calls of the source. Cut-off read from the data, not from the text of the source: active = GI50 up to about 1.1 µM and inactive = higher.

How the values were obtained:
Experiment in all cases: inhibition of tumour cell growth, NCI panel, 48 h
HOP-92 = system: HOP-92
MDA-MB-231 = system: MDA-MB-231
SF-295 = system: SF-295
OVCAR-8 = system: OVCAR-8
U-251 = system: U-251
RXF 393 = system: RXF 393
Hs-578T = system: Hs-578T
IGROV-1 = system: IGROV-1
Malme-3M = system: Malme-3M
HL-60 = system: HL-60
A549 = system: A549
NCI-H226 = system: NCI-H226
SK-OV-3 = system: SK-OV-3
SK-MEL-28 = system: SK-MEL-28
NCI-H522 = system: NCI-H522
786-0 = system: 786-0
K562 = system: K562
OVCAR-5 = system: OVCAR-5
SR = system: SR
KM12 = system: KM12

Structure (SMILES) | GI50 (HOP-92) | GI50 (MDA-MB-231) | GI50 (SF-295) | GI50 (OVCAR-8) | GI50 (U-251) | GI50 (RXF 393) | GI50 (Hs-578T) | GI50 (IGROV-1) | GI50 (Malme-3M) | GI50 (HL-60) | GI50 (A549) | GI50 (NCI-H226) | GI50 (SK-OV-3) | GI50 (SK-MEL-28) | GI50 (NCI-H522) | GI50 (786-0) | GI50 (K562) | GI50 (OVCAR-5) | GI50 (SR) | GI50 (KM12)
Cc1cccc2c1C(=O)C1(Cc3ccccc3C1=O)C2 (centres undefined) | > 100 µM (inactive) | > 100 µM (inactive) | > 100 µM (inactive) | > 100 µM (inactive) | > 100 µM (inactive) | > 100 µM (inactive) | 48.3 µM (inactive) | > 100 µM (inactive) | > 100 µM (inactive) | > 100 µM (inactive) | > 100 µM (inactive) | > 100 µM (inactive) | > 100 µM (inactive) | > 100 µM (inactive) | > 100 µM (inactive) | > 100 µM (inactive) | > 100 µM (inactive) | > 100 µM (inactive) | > 100 µM (inactive) | –
COc1cc(/C=C/C=C2\CC(C)C/C(=C\C=C\c3ccc(O)c(OC)c3)C2=O)ccc1O (centres undefined) | 7.23 µM (inactive) | 17 µM (inactive) | – | 11.5 µM (inactive) | 12.1 µM (inactive) | 4.55 µM (inactive) | 10 µM (inactive) | 8.41 µM (inactive) | 9.48 µM (inactive) | 7.35 µM (inactive) | 5.11 µM (inactive) | 14.8 µM (inactive) | 4.83 µM (inactive) | 6.92 µM (inactive) | 0.522 µM (active) | 12.4 µM (inactive) | 3.93 µM (inactive) | 14.4 µM (inactive) | 1.69 µM (inactive) | 31.7 µM (inactive)
CC(=O)NNc1nc(C)c(C(/C=C/c2ccccc2O)=N/NC(=O)c2ccncc2)s1 | > 100 µM (inactive) | > 100 µM (inactive) | > 100 µM (inactive) | > 100 µM (inactive) | > 100 µM (inactive) | > 100 µM (inactive) | > 100 µM (inactive) | > 100 µM (inactive) | > 100 µM (inactive) | > 100 µM (inactive) | > 100 µM (inactive) | > 100 µM (inactive) | > 100 µM (inactive) | > 100 µM (inactive) | > 100 µM (inactive) | > 100 µM (inactive) | – | > 100 µM (inactive) | > 100 µM (inactive) | > 100 µM (inactive)
CC(C)(C)C1=CC(=CC=C2C=CN(CCCCCCCCCCCO)C=C2)C=C(C(C)(C)C)C1=O | 1.83 µM (inactive) | 1.63 µM (inactive) | 1.38 µM (inactive) | 1.31 µM (inactive) | 0.782 µM (active) | 0.9 µM (active) | 1.87 µM (inactive) | 0.815 µM (active) | 1.46 µM (inactive) | 1.72 µM (inactive) | 1.62 µM (inactive) | – | 2.16 µM (inactive) | 1.78 µM (inactive) | 0.453 µM (active) | 1.26 µM (inactive) | 1.06 µM (active) | 2.48 µM (inactive) | 0.401 µM (active) | 1.83 µM (inactive)
O=C(O)c1ccc(/C=N\N(CCO)C2=NCCN2)cc1 | > 100 µM (inactive) | > 100 µM (inactive) | > 100 µM (inactive) | > 100 µM (inactive) | > 100 µM (inactive) | > 100 µM (inactive) | > 100 µM (inactive) | > 100 µM (inactive) | > 100 µM (inactive) | > 100 µM (inactive) | > 100 µM (inactive) | > 100 µM (inactive) | > 100 µM (inactive) | > 100 µM (inactive) | – | > 100 µM (inactive) | > 100 µM (inactive) | > 100 µM (inactive) | > 100 µM (inactive) | > 100 µM (inactive)
CC(C)(C)c1ccc(O)c(C(c2ccc([N+](=O)[O-])cc2)c2cc(C(C)(C)C)ccc2O)c1 | 2.02 µM (inactive) | 1.87 µM (inactive) | 1.98 µM (inactive) | 2.56 µM (inactive) | 2.28 µM (inactive) | 2.07 µM (inactive) | 3.61 µM (inactive) | 2.15 µM (inactive) | – | 2.23 µM (inactive) | 1.86 µM (inactive) | 1.78 µM (inactive) | 2.11 µM (inactive) | 1.74 µM (inactive) | 2.11 µM (inactive) | 2.04 µM (inactive) | 2.73 µM (inactive) | 1.82 µM (inactive) | 2.4 µM (inactive) | 1.89 µM (inactive)
COC(=O)c1cc(C)n(CN(Cc2ccccc2)Cn2nc(C(=O)OC)cc2C)n1 | > 73.5 µM (inactive) | > 100 µM (inactive) | > 79.8 µM (inactive) | > 84.1 µM (inactive) | > 100 µM (inactive) | > 53.7 µM (inactive) | > 100 µM (inactive) | > 66.1 µM (inactive) | > 100 µM (inactive) | – | > 100 µM (inactive) | > 100 µM (inactive) | > 100 µM (inactive) | > 81.5 µM (inactive) | > 100 µM (inactive) | 68.1 µM (inactive) | > 100 µM (inactive) | > 82.2 µM (inactive) | 0.873 µM (active) | > 100 µM (inactive)
O=C(O)c1c(O)c2cc(Br)ccc2oc1=O | 72.1 µM (inactive) | > 100 µM (inactive) | > 100 µM (inactive) | > 100 µM (inactive) | > 100 µM (inactive) | > 100 µM (inactive) | > 100 µM (inactive) | > 100 µM (inactive) | > 100 µM (inactive) | > 100 µM (inactive) | > 100 µM (inactive) | > 100 µM (inactive) | – | > 100 µM (inactive) | > 100 µM (inactive) | > 100 µM (inactive) | > 100 µM (inactive) | > 100 µM (inactive) | > 100 µM (inactive) | –
CC(=O)Nc1sccc1S(=O)(=O)c1ccc(Cl)cc1 | > 100 µM (inactive) | > 100 µM (inactive) | > 100 µM (inactive) | > 100 µM (inactive) | > 100 µM (inactive) | > 100 µM (inactive) | > 100 µM (inactive) | > 100 µM (inactive) | > 100 µM (inactive) | > 100 µM (inactive) | > 100 µM (inactive) | > 100 µM (inactive) | > 100 µM (inactive) | > 100 µM (inactive) | > 100 µM (inactive) | > 100 µM (inactive) | > 100 µM (inactive) | > 100 µM (inactive) | > 100 µM (inactive) | > 100 µM (inactive)
NS(=O)(=O)c1ccc(NCc2cccc3c(=O)c4ccc(Cl)cc4oc23)cc1 | 12.6 µM (inactive) | 52 µM (inactive) | 59.4 µM (inactive) | 24.2 µM (inactive) | 23.8 µM (inactive) | 27.1 µM (inactive) | 20 µM (inactive) | 20.2 µM (inactive) | 12.3 µM (inactive) | 3.68 µM (inactive) | > 86.1 µM (inactive) | > 76.7 µM (inactive) | > 71.8 µM (inactive) | > 79.8 µM (inactive) | > 39.2 µM (inactive) | > 58.5 µM (inactive) | 12.5 µM (inactive) | > 100 µM (inactive) | 4.68 µM (inactive) | 21.4 µM (inactive)
COc1ccc2nc3n(c2c1)C(c1c(F)cccc1F)SC3 (centres undefined) | 51.1 µM (inactive) | > 100 µM (inactive) | 38.6 µM (inactive) | 36.6 µM (inactive) | 51.8 µM (inactive) | > 100 µM (inactive) | 22.3 µM (inactive) | 40.1 µM (inactive) | – | 23.3 µM (inactive) | 49 µM (inactive) | 19.9 µM (inactive) | > 100 µM (inactive) | > 100 µM (inactive) | – | 39.6 µM (inactive) | 50.4 µM (inactive) | > 100 µM (inactive) | 37.9 µM (inactive) | 40.2 µM (inactive)
C=C1CC=CC(C)(C)C1C/C=C(\C)C(O)CBr (centres undefined) | 30.9 µM (inactive) | > 100 µM (inactive) | > 100 µM (inactive) | 29.4 µM (inactive) | 30.1 µM (inactive) | 26.7 µM (inactive) | > 100 µM (inactive) | 19.7 µM (inactive) | – | 32.4 µM (inactive) | 74.3 µM (inactive) | 37.5 µM (inactive) | > 100 µM (inactive) | > 100 µM (inactive) | 4.2 µM (inactive) | 28.6 µM (inactive) | 67.8 µM (inactive) | > 100 µM (inactive) | 28 µM (inactive) | 77.1 µM (inactive)
O=c1[nH]nc(-c2ccccc2)n1/N=C/c1cccnc1 | 61.9 µM (inactive) | 48.8 µM (inactive) | > 100 µM (inactive) | > 100 µM (inactive) | 76.4 µM (inactive) | 34.4 µM (inactive) | 37.5 µM (inactive) | > 100 µM (inactive) | > 100 µM (inactive) | 50.2 µM (inactive) | > 100 µM (inactive) | 57.9 µM (inactive) | – | > 100 µM (inactive) | 61.8 µM (inactive) | > 100 µM (inactive) | 40.5 µM (inactive) | 92.5 µM (inactive) | 52.7 µM (inactive) | 23.4 µM (inactive)
COc1cc2c(cc1OCCCNC(=O)c1cc3ccccc3[nH]1)N=C[C@@H]1CCCN1C2=O | 7.43 µM (inactive) | 0.466 µM (active) | 0.405 µM (active) | 0.301 µM (active) | 0.148 µM (active) | 0.0966 µM (active) | 0.23 µM (active) | 0.277 µM (active) | – | – | 0.632 µM (active) | 0.313 µM (active) | 1.6 µM (inactive) | 0.318 µM (active) | 0.0141 µM (active) | 0.237 µM (active) | 0.243 µM (active) | 0.352 µM (active) | 0.19 µM (active) | 0.241 µM (active)
COC(=O)C1(O)c2ccccc2N=C2C(=O)c3ccccc3N21 (centres undefined) [METHYLISATOID] | > 100 µM (inactive) | 41.6 µM (inactive) | > 100 µM (inactive) | > 100 µM (inactive) | > 100 µM (inactive) | > 100 µM (inactive) | > 100 µM (inactive) | > 100 µM (inactive) | 51.8 µM (inactive) | > 100 µM (inactive) | > 100 µM (inactive) | > 100 µM (inactive) | – | > 100 µM (inactive) | > 100 µM (inactive) | > 100 µM (inactive) | > 100 µM (inactive) | > 100 µM (inactive) | > 100 µM (inactive) | > 100 µM (inactive)
